Data on 2 molecules can be found in PMC7470941 (2020).

The ΔTm is the change in melting temperature against a reference sample.

Test [1] deals with FPON1 (DNA, i motif, 5'-fluoromonophosphate) TCCCCC. Kind of test: 19F NMR titration. The settings on record: Na+ (50 mM sodium citrate); pH 4.2, 10% D2O, 25 °C; 500 μM FPON1 (125 μM i-motif), 100 μM AMPF reference.
The test system of test [2] is FP-hTeloC, ssDNA form at pH 6.4 (DNA, single strand, 5'-fluoromonophosphate) TAACCCTAACCCTAACCCTAACCC
As to the kind of experiment: 19F NMR chemical shift change. The settings on record: Na+ (10 mM sodium cacodylate, 100 mM NaCl); pH 6.4, 10% D2O; i-motif:ssDNA 45:55; ΔδF = −0.02 ppm.

Test [3] has as its system FP-hTeloC (DNA, i motif, 5'-fluoromonophosphate) TAACCCTAACCCTAACCCTAACCC
As to the kind of experiment: 19F NMR titration. The note with it: Na+ (50 mM sodium citrate); apparent; pH 4.2, 10% D2O; 212.5 μM FP-hTeloC, 80 μM AMPF reference.

For test [4] the test system is unchanged. As to the kind of experiment: 19F NMR melting, i-motif signal. The settings on record: Na+ (50 mM citrate buffer); pH 5.5, 10% D2O; 250 μM DNA, two equivalents mitoxantrone (+1.1 °C at 0.3 equivalents).
The subject of test [5] is hTeloC (DNA, i motif) TAACCCTAACCCTAACCCTAACCC
Kind of test: UV/VIS melting, 295 nm. The settings on record: Na+ (50 mM citrate buffer); pH 5.5, 10% D2O; destabilised by excess mitoxantrone.

In test [6] the test system is FP-hTeloC (DNA, i motif, 5'-fluoromonophosphate) TAACCCTAACCCTAACCCTAACCC
As to the kind of experiment: UV/VIS melting, 295 nm. The note with it: Na+ (50 mM citrate buffer); pH 5.5, 10% D2O; 4 μM DNA; destabilised by excess mitoxantrone.

In test [1], `C[n+]1ccc(-c2c3nc(c(-c4cc[n+](C)cc4)c4ccc([nH]4)c(-c4cc[n+](C)cc4)c4nc(c(-c5cc[n+](C)cc5)c5ccc2[nH]5)C=C4)C=C3)cc1` showed a Kd of 0.18 ± 0.03 mM.

Take `O=C1c2c(O)ccc(O)c2C(=O)c2c(NCCNCCO)ccc(NCCNCCO)c21`: the figures for the binding entry in test [2], in test [5] and in test [6] were “weak”, “yes” and “yes”, respectively. The Kd in test [3] is recorded as 0.07 ± 0.03 mM. In addition, the ΔTm in test [4] was −3.2 °C.
